According to patent US9227923B2, “Pesticidal carboxamides” (Bayer Intellectual Property GmbH, priority 2009, dated 2016):

Legend:
Assay type in all cases: in vivo
[1] = system: Tobacco Cutworm (Spodoptera litura) Larvae; experiment: Test against tobacco cutworm (Spodoptera litura) larvae, leaf dip; conditions: active compound concentration of 100 ppm; third instar larvae; after 7 days
Protocol: (§1) Solvent: 3 parts by weight of dimethylformamide
(§2) Emulsifier: 1 part by weight of polyoxyethylene alkyl phenyl ether
Leaves of sweet potato were immersed in the test solution at the appropriate concentration, and the leaves were dried in air. The leaves were then placed in a petri dish having a diameter of 9 cm, and ten Spodoptera litura at third instar larvae were released therein. The petri dishes were placed in a temperature-controlled chamber at 25° C. After 2 days and 4 days more sweet potato leaves were added. After 7 days, the number of dead larvae was counted to calculate the insecticidal activity. An insecticidal activity of 100% means that all larvae were killed, whereas an insecticidal activity of 0% means that no larva was killed.

[2] = system: Two-Spotted Spider Mite (Tetranychus Urticae); experiment: Test against two-spotted spider mite (Tetranychus urticae), spray; conditions: active compound concentration of 100 ppm; adult mites; after 7 days
From the text: as §1, §2

[3] = system: Cucurbit Leaf Beetle (Aulacophora Femoralis); experiment: Test against cucurbit leaf beetle (Aulacophora femoralis), leaf dip; conditions: active compound concentration of 100 ppm; second instar larvae; after 7 days
Protocol: as §1, §2
Leaves of cucumber were immersed in the test solution at the appropriate concentration, and the leaves were dried in air. The leaves were then put in a plastic cup containing sterilized black soil and five Aulacophora femoralis at second instar larvae were released in the cup. The cups were placed in a temperature-controlled chamber at 25° C. After 7 days, the number of dead larvae was counted, and thus the insecticidal activity was calculated. An insecticidal activity of 100% means that all larvae were killed, whereas an insecticidal activity of 0% means that no larva was killed.

Work on `CCc1cc(C(F)(C(F)(F)F)C(F)(F)F)cc(C)c1NC(=O)c1ccc(CNC(=O)C2CC2)cc1` [Compound 5-30] yielded an insecticidal activity [1] of 100%, an acaricidal activity [2] of 100% and an insecticidal activity [3] of 100%.
`CSCC(=O)NCc1ccc(C(=O)Nc2c(Cl)cc(C(F)(C(F)(F)F)C(F)(F)C(F)(F)F)cc2Cl)cc1Cl` (centres unmarked) [Compound 5-331] was tested, and the insecticidal activity [1] was 100%, the acaricidal activity [2] was 100% and the insecticidal activity [3] was 100%.
Compound `Cc1cc(C(F)(C(F)(F)F)C(F)(F)F)cc(OC(F)F)c1NC(=O)c1ccc(CNC(=O)CC2CC2)c(Cl)c1` [Compound 5-340] has an insecticidal activity [1] of 100% and an acaricidal activity [2] of 100%.
`CCc1cc(C(F)(C(F)(F)F)C(F)(F)F)cc(C)c1NC(=O)c1ccc(CNC(=O)c2ccc(F)cc2)c(Br)c1` [Compound 5-92] gave an acaricidal activity [2] of 100%.
For `CCc1cc(C(F)(C(F)(F)F)C(F)(F)C(F)(F)F)cc(C)c1NC(=O)c1ccc(CNC(=O)CC(F)(F)F)c(F)c1` (centres unmarked) [Compound 5-148], the insecticidal activity [1] was 100%, the acaricidal activity [2] was 100% and the insecticidal activity [3] was 100%.
With `CCc1cc(C(F)(C(F)(F)F)C(F)(F)F)cc(C)c1NC(=O)c1ccc2c(c1)CCCC2NC(C)=O` (centres unmarked) [Compound 11-2] the insecticidal activity [1] was 100% and the acaricidal activity [2] was 100%.
`CCC(=O)N(C)Cc1ccc(C(=O)Nc2c(C)cc(C(F)(C(F)(F)F)C(F)(F)F)cc2CC)cc1` [Compound 5-186] was tested, and the acaricidal activity [2] was 100%.
Work on `CCc1cc(C(F)(C(F)(F)F)C(F)(F)F)cc(C)c1NC(=O)c1ccc(CNC(=O)CC(F)(F)F)c(I)c1` [Compound 5-192] yielded an insecticidal activity [1] of 100% and an acaricidal activity [2] of 100%.
`CCc1cc(C(F)(C(F)(F)F)C(F)(F)F)cc(C)c1NC(=O)c1ccc(CNC(=O)COC)c(Br)c1` [Compound 5-91] was tested, and the insecticidal activity [1] was 100% and the acaricidal activity [2] was 100%.
Compound `CCc1cc(C(F)(C(F)(F)F)C(F)(F)F)cc(C)c1NC(=O)c1ccc(CNC(=O)CSC)cc1` [Compound 5-33] has an acaricidal activity [2] of 100%.
`CCC(=O)NCc1ccc(C(=O)Nc2c(Cl)cc(C(F)(C(F)(F)F)C(F)(F)F)cc2Cl)cc1` [Compound 5-224] was tested, and the acaricidal activity [2] was 100% and the insecticidal activity [3] was 100%.
`CCc1cc(C(F)(C(F)(F)F)C(F)(F)C(F)(F)F)cc(C)c1NC(=O)c1ccc(CNC(=O)CC2CC2)c(Cl)c1` (centres unmarked) [Compound 5-153] showed an insecticidal activity [1] of 100% and an acaricidal activity [2] of 100%.
Compound `CCc1cc(C(F)(C(F)(F)F)C(F)(F)F)cc(C)c1NC(=O)c1ccc(CNC(=O)c2cccnc2Cl)c(Br)c1` [Compound 5-94] has an insecticidal activity [1] of 100% and an acaricidal activity [2] of 100%.
In the case of `CCc1cc(C(F)(C(F)(F)F)C(F)(F)F)cc(C)c1NC(=O)c1ccc(CNC(C)=O)cc1F` [Compound 5-44], the acaricidal activity [2] was 100% and the insecticidal activity [3] was 100%.
Work on `CCC(=O)NCc1ccc(C(=O)Nc2c(C)cc(C(F)(C(F)(F)F)C(F)(F)F)cc2CC)cc1` [Compound 5-29] yielded an insecticidal activity [1] of 100% and an acaricidal activity [2] of 100%.
With `CCc1cc(C(F)(C(F)(F)F)C(F)(F)F)cc(C)c1NC(=O)c1ccc(CN(C)C(=O)CC2CC2)cc1` [Compound 5-187] the acaricidal activity [2] was 100%.
`CCc1cc(C(F)(C(F)(F)F)C(F)(F)F)cc(C)c1NC(=O)c1ccc(CNC(=O)CC(F)(F)F)cc1` [Compound 5-32] was tested, and the insecticidal activity [1] was 100% and the acaricidal activity [2] was 100%.
Compound `CCc1cc(C(F)(C(F)(F)F)C(F)(F)F)cc(C)c1NC(=O)c1ccc(CNC(=O)CC(F)(F)F)c(C(F)(F)F)c1` [Compound 5-110] has an insecticidal activity [1] of 100% and an acaricidal activity [2] of 100%.
Compound `CCc1cc(C(F)(C(F)(F)F)C(F)(F)F)cc(C)c1NC(=O)c1ccc(CNC(=O)c2cccnc2F)c(C(F)(F)F)c1` [Compound 5-112] has an insecticidal activity [1] of 100% and an acaricidal activity [2] of 100%.
For `CCc1cc(C(F)(C(F)(F)F)C(F)(F)F)cc(C)c1NC(=O)c1ccc(CN(C)C(=O)CC(F)(F)F)cc1` [Compound 5-188], the insecticidal activity [1] was 100% and the acaricidal activity [2] was 100%.
With `CCc1cc(C(F)(C(F)(F)F)C(F)(F)F)cc(C)c1NC(=O)c1ccc(CNC(=O)c2cccnc2F)cc1` [Compound 5-40] the acaricidal activity [2] was 100% and the insecticidal activity [3] was 100%.
`CCC(=O)NCc1ccc(C(=O)Nc2c(C)cc(C(F)(C(F)(F)F)C(F)(F)F)cc2CC)cc1F` [Compound 5-72] was tested, and the insecticidal activity [1] was 100% and the acaricidal activity [2] was 100%.
In the case of `CCc1cc(C(F)(C(F)(F)F)C(F)(F)F)cc(C)c1NC(=O)c1ccc(CNC(=O)CC2CC2)cc1F` [Compound 5-46], the insecticidal activity [1] was 100% and the insecticidal activity [3] was 100%.
Work on `CCc1cc(C(F)(C(F)(F)F)C(F)(F)F)cc(C)c1NC(=O)c1ccc(CNC(C)=O)nc1` [Compound 8-2] yielded an insecticidal activity [1] of 100% and an insecticidal activity [3] of 100%.
For `CCc1cc(C(F)(C(F)(F)F)C(F)(F)F)cc(C)c1NC(=O)c1ccc(CNC(=O)c2ccccc2F)cc1` [Compound 5-34], the insecticidal activity [1] was 100% and the insecticidal activity [3] was 100%.
Work on `CCc1cc(C(F)(C(F)(F)F)C(F)(F)F)cc(C)c1NC(=O)c1ccc(CNC(=O)CS(C)(=O)=O)c(Br)c1` [Compound 5-178] yielded an insecticidal activity [1] of 100% and an insecticidal activity [3] of 100%.
With `CCc1cc(C(F)(C(F)(F)F)C(F)(F)F)cc(C)c1NC(=O)c1ccc(CNC(=O)CC2CC2)c(Cl)c1` [Compound 5-80] the insecticidal activity [1] was 100% and the acaricidal activity [2] was 100%.
For `CCc1cc(C(F)(C(F)(F)F)C(F)(F)C(F)(F)F)cc(C)c1NC(=O)c1ccc(CNC(C)=O)c(F)c1` (centres unmarked) [Compound 5-144], the insecticidal activity [1] was 100% and the insecticidal activity [3] was 100%.
`CCC(=O)NCc1ccc(C(=O)Nc2c(C)cc(C(F)(C(F)(F)F)C(F)(F)F)cc2C)c(F)c1` [Compound 5-22] was tested, and the insecticidal activity [1] was 100% and the insecticidal activity [3] was 100%.
Work on `CCc1cc(C(F)(C(F)(F)F)C(F)(F)C(F)(F)F)cc(C)c1NC(=O)c1ccc(CNC(=O)CC2CC2)c(F)c1F` (centres unmarked) [Compound 5-204] yielded an insecticidal activity [1] of 100% and an insecticidal activity [3] of 100%.
With `CC(=O)NCc1ccc(C(=O)Nc2c(C)cc(C(F)(C(F)(F)F)C(F)(F)C(F)(F)F)cc2C)cc1Br` (centres unmarked) [Compound 5-211] the insecticidal activity [1] was 100% and the insecticidal activity [3] was 100%.
With `CCC(=O)NCc1ccc(C(=O)Nc2c(C)cc(C(F)(C(F)(F)F)C(F)(F)F)cc2CC)c(F)c1` [Compound 5-45] the insecticidal activity [1] was 100% and the insecticidal activity [3] was 100%.
`CCc1cc(C(F)(C(F)(F)F)C(F)(F)C(F)(F)F)cc(C)c1NC(=O)c1ccc(CNC(=O)CC(F)(F)F)c(Br)c1` (centres unmarked) [Compound 5-161] gave an insecticidal activity [1] of 100% and an insecticidal activity [3] of 100%.
`CCc1cc(C(F)(C(F)(F)F)C(F)(F)C(F)(F)F)cc(C)c1NC(=O)c1ccc(CNC(=O)CC2CC2)c(F)c1` (centres unmarked) [Compound 5-147] showed an insecticidal activity [1] of 100% and an acaricidal activity [2] of 100%.
In the case of `CCc1cc(C(F)(C(F)(F)F)C(F)(F)Br)cc(C)c1NC(=O)c1ccc(CNC(=O)CC2CC2)c(Cl)c1` (centres unmarked) [Compound 5-319], the insecticidal activity [1] was 100% and the acaricidal activity [2] was 100%.
Compound `CCc1cc(C(F)(C(F)(F)F)C(F)(F)C(F)(F)F)cc(C)c1NC(=O)c1ccc(CNC(=O)C2CC2)c(F)c1F` (centres unmarked) [Compound 5-203] has an insecticidal activity [1] of 100% and an insecticidal activity [3] of 100%.
`CCc1cc(C(F)(C(F)(F)F)C(F)(F)C(F)(F)F)cc(C)c1NC(=O)c1ccc(CNC(C)=O)c(F)c1F` (centres unmarked) [Compound 5-201] was tested, and the insecticidal activity [1] was 100% and the insecticidal activity [3] was 100%.
`CCC(=O)NCc1ccc(C(=O)Nc2c(C)cc(C(F)(C(F)(F)F)C(F)(F)F)cc2CC)nc1` [Compound 7-3] gave an insecticidal activity [1] of 100% and an insecticidal activity [3] of 100%.
For `CCC(=O)NC1CCc2cc(C(=O)Nc3c(C)cc(C(F)(C(F)(F)F)C(F)(F)C(F)(F)F)cc3CC)ccc21` (centres unmarked) [Compound 10-10], the insecticidal activity [1] was 100% and the acaricidal activity [2] was 100%.
With `CCc1cc(C(F)(C(F)(F)F)C(F)(F)C(F)(F)F)cc(C)c1NC(=O)c1ccc(CNC(=O)C2CC2)c(Cl)c1` (centres unmarked) [Compound 5-152] the insecticidal activity [1] was 100% and the insecticidal activity [3] was 100%.
`CCc1cc(C(F)(C(F)(F)F)C(F)(F)F)cc(C)c1NC(=O)c1ccc2c(c1)CCC2NC(=O)CC1CC1` (centres unmarked) [Compound 10-5] showed an insecticidal activity [1] of 100% and an acaricidal activity [2] of 100%.
In the case of `CCc1cc(C(F)(C(F)(F)F)C(F)(F)F)cc(C)c1NC(=O)c1ccc(CNC(=O)c2cccnc2F)c2ccccc12` [Compound 6-7], the insecticidal activity [1] was 100% and the insecticidal activity [3] was 100%.
`CCc1cc(C(F)(C(F)(F)F)C(F)(F)F)cc(C)c1NC(=O)c1ccc(-n2cncn2)c2ccccc12` [Compound 2-2] was tested, and the insecticidal activity [1] was 100% and the insecticidal activity [3] was 100%.
`CCc1cc(C(F)(C(F)(F)F)C(F)(F)F)cc(C)c1NC(=O)c1ccc(CNC(=O)CC2CC2)c(Br)c1` [Compound 5-88] was tested, and the insecticidal activity [1] was 100% and the acaricidal activity [2] was 100%.
For `CC(=O)NCc1ccc(C(=O)Nc2c(C)cc(C(F)(C(F)(F)F)C(F)(F)F)cc2Cl)cc1` [Compound 5-333], the acaricidal activity [2] was 100%.
`CCc1cc(C(F)(C(F)(F)F)C(F)(F)F)cc(C)c1NC(=O)c1ccc(CNC(=O)C2CC2)c(Cl)c1` [Compound 5-79] was tested, and the insecticidal activity [1] was 100% and the insecticidal activity [3] was 100%.
Compound `CCc1cc(C(F)(C(F)(F)F)C(F)(F)F)cc(C)c1NC(=O)c1ccc(C(C)NC(=O)CC(F)(F)F)cc1` (centres unmarked) [Compound 9-6] has an insecticidal activity [1] of 100% and an insecticidal activity [3] of 100%.
